Values quoted from earlier work, collected in paper PMC6470533, “Structure–Activity Study, Characterization, and Mechanism of Action of an Antimicrobial Peptoid D2 and Its D- and L-Peptide Analogues” (Molecules, 2019).
Non-standard residues stand in square brackets, D forms with d. Residues, ends and D or L forms follow the SMILES beside them. N(1-naphthylmethyl)Gly = O=C(O)CNCc1cccc2ccccc12; N(4-MeBn)Gly = Cc1ccc(CNCC(=O)O)cc1; NBuGly = CCCCNCC(=O)O; Nlys = NCCCCNCC(=O)O

Settings: cited from earlier work
Text: We have previously described a promising antimicrobial peptoid, D2, which is active against MRSP and P. aeruginosa, resistant to plasma proteases and hepatic clearance in vitro, and is suitable for topical administration to treat superficial pyoderma. In the present study, we investigated the structural features responsible for antimicrobial activity of D2 by (a) performing Gly-scan to analyze the residues crucial for activity; (b) investigating the effects of single substitution in order to increase activity; (c) exploring the effect of the peptoid backbone by exchanging L- and D- amin ...

In the case of `CCCCN(CC(N)=O)C(=O)CN(CCCCN)C(=O)CN(Cc1cccc2ccccc12)C(=O)CN(CCCCN)C(=O)CN(Cc1ccc(C)cc1)C(=O)CN(Cc1cccc2ccccc12)C(=O)CN(CCCCN)C(=O)CNCCCCN` [D2] (H-[Nlys][Nlys][N(1-naphthylmethyl)Gly][N(4-MeBn)Gly][Nlys][N(1-naphthylmethyl)Gly][Nlys][NBuGly]-NH2), the “resistance to hepatic clearance” value is given as “resistant” and the “resistance to plasma proteases” value is given as “resistant”.
